The source of these data is ChEMBL document CHEMBL1136254, “Synthesis and SAR of 8-arylquinolines as potent corticotropin-releasing factor1 (CRF1) receptor antagonists” (Bioorg Med Chem Lett, 2003).

For data set [1], the target named is T1, Corticotropin-releasing factor receptor 1 (Homo sapiens, UniProt P34998).
T1 sequence (P34998 whole entry): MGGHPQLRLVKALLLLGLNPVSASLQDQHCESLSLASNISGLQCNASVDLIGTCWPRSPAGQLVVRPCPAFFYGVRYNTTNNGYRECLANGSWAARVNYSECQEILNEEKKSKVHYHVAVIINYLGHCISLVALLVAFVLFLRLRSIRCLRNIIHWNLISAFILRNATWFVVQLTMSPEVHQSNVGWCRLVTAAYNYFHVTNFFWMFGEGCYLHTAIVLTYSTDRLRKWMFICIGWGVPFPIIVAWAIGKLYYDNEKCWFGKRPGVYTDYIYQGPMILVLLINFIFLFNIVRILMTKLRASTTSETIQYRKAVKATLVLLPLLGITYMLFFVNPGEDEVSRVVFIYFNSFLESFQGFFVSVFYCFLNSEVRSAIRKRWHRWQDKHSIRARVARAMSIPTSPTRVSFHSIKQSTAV
In words: Binding affinity towards cloned human Corticotropin releasing factor receptor 1 expressed in CHO cells using [125I]o-CRF as the radioligand. In kind it is cell-based.

Data set [2] is described as follows: pKa value was determined. In kind it is physicochemical.
Data set [3] is described as follows: Solubility at pH 4. In kind it is physicochemical. The settings on record: buffer.
Data set [4] concerns the target T1, Corticotropin-releasing factor receptor 1. In words: Inhibition of Corticotropin releasing factor receptor 1-stimulated cAMP production. In kind it is functional. A general note: cAMP levels reflect the balance of adenylyl cyclase and phosphodiesterase activity.

In brackets after ≈: the same amount, converted by molar mass.

As usually defined, the Ki is a measure of affinity in units of concentration, obtained from inhibition or displacement. Regarding `CSc1cc(C)nc2c(-c3ccc(Cl)cc3Cl)cccc12`, the Ki in data set [1] turned out to be 16 nM.

`CCCN(CC1CC1)c1cc(C)nc2c(-c3c(C)cc(C)cc3C)cccc12`: affinity in data set [1] was put at a Ki of 2.2 nM.

As to `CCCN(CCC)c1cc(C)nc2c(-c3ccc(OC)cc3)cccc12`, the Ki in data set [1] stood at 52 nM.

The molecule `CCCN(CCC)c1cc(C)nc2c(-c3ccc(Cl)cc3)cccc12` yielded a Ki in data set [1] of 8.9 nM.

In data set [1], `CCCN(CC1CC1)c1cc(C)nc2c(-c3ccc(Cl)cc3Cl)c(C)ccc12` displayed a Ki of 2.5 nM.

As usually defined, the pKa is the negative logarithm of the acid dissociation constant. A higher pKa goes with a group that holds its proton tightly. Broadly, the solubility is how much of the substance goes into solution per volume. Lower therefore signals a poorly soluble substance. In data set [2], `CCCN(CCC)c1cc(C)nc2c(-c3cnc(N(C)C)cc3C)c(C)nn12` returned a pKa of 7.1. The molecule also had a solubility in data set [3] of 10000 µg/mL (≈ 26.3 mM).

As a reminder, the IC50 is the concentration that gives 50% inhibition. Molecule `COCCN(CCOC)c1cc(C)nc2c(-c3ccc(Cl)cc3Cl)cccc12` returned an IC50 in data set [4] of 14 nM. The molecule further came in with a Ki in data set [1] of 5.7 nM.

For `CCCN(CC1CC1)c1cc(C)nc2c(-c3ccc(Cl)cc3Cl)cccc12`, the IC50 in data set [4] was 16 nM. Besides, in data set [1], the affinity, expressed as Ki, was 0.5 nM.

In turn, `CCCCN(CC)c1cc(C)nc2c(-c3ccc(Cl)cc3Cl)cccc12` registered an IC50 in data set [4] of 51 nM. Moreover, the Ki in data set [1] turned out to be 5.7 nM.

In data set [1], `COCCN(CCOC)c1cc(C)nc2c(-c3c(C)cc(C)cc3C)cccc12` gave a Ki of 6.5 nM.
